Laboratory results taken from the kinase profiling compilation of Christmann-Franck et al. (2016).

How the values were obtained:
Assay in all cases: KINOMEscan competition binding
Conditions in all cases: compound 10.0 µM
CDKL2 (human) = CDKL2 (human) (UniProt Q92772)
PAK1 (human) = PAK1 (human) (UniProt Q13153)
RET (human) = RET (human) (UniProt P07949)
STK33 (human) = STK33 (human) (UniProt Q9BYT3)
CLK4 (human) = CLK4 (human) (UniProt Q9HAZ1)
CSNK1D (human) = CSNK1D (human) (UniProt P48730)
SYK (human) = SYK (human) (UniProt P43405)
MAPK11 (human) = MAPK11 (human) (UniProt Q15759)
CDK11B (human) = CDK11B (human) (UniProt P21127)
PRKD2 (human) = PRKD2 (human) (UniProt Q9BZL6)
TYRO3 (human) = TYRO3 (human) (UniProt Q06418)
CAMKK1 (human) = CAMKK1 (human) (UniProt Q8N5S9)
CDK15 (human) = CDK15 (human) (UniProt Q96Q40)
PIM1 (human) = PIM1 (human) (UniProt P11309)
CDK18 (human) = CDK18 (human) (UniProt Q07002)
IRAK3 (human) = IRAK3 (human) (UniProt Q9Y616)
SRC (human) = SRC (human) (UniProt P12931)
PRKX (human) = PRKX (human) (UniProt P51817)
CDC42BPB (human) = CDC42BPB (human) (UniProt Q9Y5S2)
DAPK3 (human) = DAPK3 (human) (UniProt O43293)
STK4 (human) = STK4 (human) (UniProt Q13043)
EPHA1 (human) = EPHA1 (human) (UniProt P21709)
STK3 (human) = STK3 (human) (UniProt Q13188)
LIMK1 (human) = LIMK1 (human) (UniProt P53667)
RPS6KA2 KD1 (human) = RPS6KA2 KD1 (human) (UniProt Q15349)
MERTK (human) = MERTK (human) (UniProt Q12866)
CDK16 (human) = CDK16 (human) (UniProt Q00536)
RIOK1 (human) = RIOK1 (human) (UniProt Q9BRS2)
RAF1 (human) = RAF1 (human) (UniProt P04049)
MKNK1 (human) = MKNK1 (human) (UniProt Q9BUB5)
STK10 (human) = STK10 (human) (UniProt O94804)
GSK3B (human) = GSK3B (human) (UniProt P49841)
CDK8 (human) = CDK8 (human) (UniProt P49336)
MAP3K4 (human) = MAP3K4 (human) (UniProt Q9Y6R4)
MAPKAPK2 (human) = MAPKAPK2 (human) (UniProt P49137)
CHUK (human) = CHUK (human) (UniProt O15111)
STK35 (human) = STK35 (human) (UniProt Q8TDR2)
[1] = test system: FLT3 (human), P36888 [N841I]
PDGFRA (human) = PDGFRA (human) (UniProt P16234)
PIK3CD (human) = PIK3CD (human) (UniProt O00329)

MAPKAPK2 (human), sequence (P49137 whole entry, looked up): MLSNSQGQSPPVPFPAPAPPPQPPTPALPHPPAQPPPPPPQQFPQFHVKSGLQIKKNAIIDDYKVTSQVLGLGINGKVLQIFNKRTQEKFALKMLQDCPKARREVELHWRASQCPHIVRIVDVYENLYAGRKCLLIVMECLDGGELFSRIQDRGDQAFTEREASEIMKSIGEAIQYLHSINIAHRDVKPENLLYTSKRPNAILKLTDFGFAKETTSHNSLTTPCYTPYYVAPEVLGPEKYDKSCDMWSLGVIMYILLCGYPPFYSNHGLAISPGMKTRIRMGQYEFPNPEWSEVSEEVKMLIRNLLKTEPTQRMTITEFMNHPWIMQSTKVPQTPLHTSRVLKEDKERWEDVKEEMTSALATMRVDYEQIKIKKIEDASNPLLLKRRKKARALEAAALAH
DAPK3 (human), sequence (O43293 whole entry, looked up): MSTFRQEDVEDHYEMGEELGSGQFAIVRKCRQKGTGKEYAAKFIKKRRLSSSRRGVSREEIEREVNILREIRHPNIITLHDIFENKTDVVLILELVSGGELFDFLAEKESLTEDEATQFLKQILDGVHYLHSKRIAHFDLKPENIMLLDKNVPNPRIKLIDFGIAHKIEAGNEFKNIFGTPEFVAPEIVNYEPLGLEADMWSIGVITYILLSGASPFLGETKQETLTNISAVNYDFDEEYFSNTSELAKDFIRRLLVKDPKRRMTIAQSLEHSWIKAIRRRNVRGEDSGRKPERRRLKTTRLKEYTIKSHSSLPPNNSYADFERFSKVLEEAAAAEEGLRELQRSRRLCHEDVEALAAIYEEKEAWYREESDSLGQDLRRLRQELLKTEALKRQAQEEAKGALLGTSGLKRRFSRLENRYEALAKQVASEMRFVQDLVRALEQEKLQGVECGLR
RPS6KA2 KD1 (human), sequence (Q15349 whole entry, looked up): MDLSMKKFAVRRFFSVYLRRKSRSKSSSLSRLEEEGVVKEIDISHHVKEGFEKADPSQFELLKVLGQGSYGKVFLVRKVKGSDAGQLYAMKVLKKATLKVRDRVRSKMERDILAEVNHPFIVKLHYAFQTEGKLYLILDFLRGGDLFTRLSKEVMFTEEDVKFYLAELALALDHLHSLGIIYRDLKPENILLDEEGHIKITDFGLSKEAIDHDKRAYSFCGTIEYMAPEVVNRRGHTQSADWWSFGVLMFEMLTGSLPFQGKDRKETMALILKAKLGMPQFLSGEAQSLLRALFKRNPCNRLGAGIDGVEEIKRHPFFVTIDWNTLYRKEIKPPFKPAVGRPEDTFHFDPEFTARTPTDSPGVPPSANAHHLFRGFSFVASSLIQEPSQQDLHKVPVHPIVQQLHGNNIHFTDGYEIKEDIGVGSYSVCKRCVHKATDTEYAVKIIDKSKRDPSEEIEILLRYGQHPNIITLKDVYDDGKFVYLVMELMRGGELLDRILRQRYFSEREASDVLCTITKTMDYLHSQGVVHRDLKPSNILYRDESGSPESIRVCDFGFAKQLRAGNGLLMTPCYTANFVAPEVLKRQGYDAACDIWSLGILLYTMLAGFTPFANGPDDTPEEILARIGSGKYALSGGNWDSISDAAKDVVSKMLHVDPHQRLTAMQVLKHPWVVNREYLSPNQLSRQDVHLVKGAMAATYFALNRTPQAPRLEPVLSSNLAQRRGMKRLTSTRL
CLK4 (human), sequence (Q9HAZ1 whole entry, looked up): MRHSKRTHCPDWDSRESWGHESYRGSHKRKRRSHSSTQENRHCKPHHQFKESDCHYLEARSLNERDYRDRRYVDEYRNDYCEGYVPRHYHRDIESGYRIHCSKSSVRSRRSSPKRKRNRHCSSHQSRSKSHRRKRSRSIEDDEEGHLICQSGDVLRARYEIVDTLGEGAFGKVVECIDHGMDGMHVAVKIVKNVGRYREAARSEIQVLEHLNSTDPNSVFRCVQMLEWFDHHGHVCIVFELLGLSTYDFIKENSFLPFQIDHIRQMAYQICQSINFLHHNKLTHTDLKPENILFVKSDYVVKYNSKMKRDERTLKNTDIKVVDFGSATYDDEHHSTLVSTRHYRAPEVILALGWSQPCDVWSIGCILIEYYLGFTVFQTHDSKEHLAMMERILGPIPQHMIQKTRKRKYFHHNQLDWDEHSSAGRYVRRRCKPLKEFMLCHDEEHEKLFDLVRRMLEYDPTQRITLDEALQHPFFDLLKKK
MAPK11 (human), sequence (Q15759 whole entry, looked up): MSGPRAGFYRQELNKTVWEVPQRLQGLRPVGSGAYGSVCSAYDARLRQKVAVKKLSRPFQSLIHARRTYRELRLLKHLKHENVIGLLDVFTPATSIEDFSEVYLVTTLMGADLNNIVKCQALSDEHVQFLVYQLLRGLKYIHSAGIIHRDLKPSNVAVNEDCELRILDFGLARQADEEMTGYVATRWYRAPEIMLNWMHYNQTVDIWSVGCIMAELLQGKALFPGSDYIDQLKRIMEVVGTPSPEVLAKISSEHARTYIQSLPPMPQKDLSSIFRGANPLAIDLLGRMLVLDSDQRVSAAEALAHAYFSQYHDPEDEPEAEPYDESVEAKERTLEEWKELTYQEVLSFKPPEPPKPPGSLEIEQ
PIM1 (human), sequence (P11309 whole entry, looked up): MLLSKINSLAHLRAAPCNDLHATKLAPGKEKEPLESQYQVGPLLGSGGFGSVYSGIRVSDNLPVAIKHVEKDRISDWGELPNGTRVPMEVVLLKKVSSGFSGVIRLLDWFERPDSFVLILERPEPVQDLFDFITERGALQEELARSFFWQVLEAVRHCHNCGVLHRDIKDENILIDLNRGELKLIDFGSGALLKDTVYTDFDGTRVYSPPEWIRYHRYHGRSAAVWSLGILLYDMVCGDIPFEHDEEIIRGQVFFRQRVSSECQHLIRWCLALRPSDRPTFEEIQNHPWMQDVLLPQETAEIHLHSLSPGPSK
CDK8 (human), sequence (P49336 whole entry, looked up): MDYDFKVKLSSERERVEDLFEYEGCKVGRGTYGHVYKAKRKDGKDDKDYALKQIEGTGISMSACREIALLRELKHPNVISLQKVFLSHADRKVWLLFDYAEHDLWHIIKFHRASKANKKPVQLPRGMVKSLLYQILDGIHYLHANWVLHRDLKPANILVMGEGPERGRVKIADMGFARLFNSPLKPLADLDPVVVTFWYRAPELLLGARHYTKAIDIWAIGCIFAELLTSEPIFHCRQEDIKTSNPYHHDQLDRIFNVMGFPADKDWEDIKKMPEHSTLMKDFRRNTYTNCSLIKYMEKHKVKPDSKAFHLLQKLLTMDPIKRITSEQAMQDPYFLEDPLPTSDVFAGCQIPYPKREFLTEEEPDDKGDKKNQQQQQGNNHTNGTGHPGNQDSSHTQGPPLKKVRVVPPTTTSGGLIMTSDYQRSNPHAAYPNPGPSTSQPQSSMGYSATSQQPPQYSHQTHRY
MAP3K4 (human), sequence (Q9Y6R4 whole entry, looked up): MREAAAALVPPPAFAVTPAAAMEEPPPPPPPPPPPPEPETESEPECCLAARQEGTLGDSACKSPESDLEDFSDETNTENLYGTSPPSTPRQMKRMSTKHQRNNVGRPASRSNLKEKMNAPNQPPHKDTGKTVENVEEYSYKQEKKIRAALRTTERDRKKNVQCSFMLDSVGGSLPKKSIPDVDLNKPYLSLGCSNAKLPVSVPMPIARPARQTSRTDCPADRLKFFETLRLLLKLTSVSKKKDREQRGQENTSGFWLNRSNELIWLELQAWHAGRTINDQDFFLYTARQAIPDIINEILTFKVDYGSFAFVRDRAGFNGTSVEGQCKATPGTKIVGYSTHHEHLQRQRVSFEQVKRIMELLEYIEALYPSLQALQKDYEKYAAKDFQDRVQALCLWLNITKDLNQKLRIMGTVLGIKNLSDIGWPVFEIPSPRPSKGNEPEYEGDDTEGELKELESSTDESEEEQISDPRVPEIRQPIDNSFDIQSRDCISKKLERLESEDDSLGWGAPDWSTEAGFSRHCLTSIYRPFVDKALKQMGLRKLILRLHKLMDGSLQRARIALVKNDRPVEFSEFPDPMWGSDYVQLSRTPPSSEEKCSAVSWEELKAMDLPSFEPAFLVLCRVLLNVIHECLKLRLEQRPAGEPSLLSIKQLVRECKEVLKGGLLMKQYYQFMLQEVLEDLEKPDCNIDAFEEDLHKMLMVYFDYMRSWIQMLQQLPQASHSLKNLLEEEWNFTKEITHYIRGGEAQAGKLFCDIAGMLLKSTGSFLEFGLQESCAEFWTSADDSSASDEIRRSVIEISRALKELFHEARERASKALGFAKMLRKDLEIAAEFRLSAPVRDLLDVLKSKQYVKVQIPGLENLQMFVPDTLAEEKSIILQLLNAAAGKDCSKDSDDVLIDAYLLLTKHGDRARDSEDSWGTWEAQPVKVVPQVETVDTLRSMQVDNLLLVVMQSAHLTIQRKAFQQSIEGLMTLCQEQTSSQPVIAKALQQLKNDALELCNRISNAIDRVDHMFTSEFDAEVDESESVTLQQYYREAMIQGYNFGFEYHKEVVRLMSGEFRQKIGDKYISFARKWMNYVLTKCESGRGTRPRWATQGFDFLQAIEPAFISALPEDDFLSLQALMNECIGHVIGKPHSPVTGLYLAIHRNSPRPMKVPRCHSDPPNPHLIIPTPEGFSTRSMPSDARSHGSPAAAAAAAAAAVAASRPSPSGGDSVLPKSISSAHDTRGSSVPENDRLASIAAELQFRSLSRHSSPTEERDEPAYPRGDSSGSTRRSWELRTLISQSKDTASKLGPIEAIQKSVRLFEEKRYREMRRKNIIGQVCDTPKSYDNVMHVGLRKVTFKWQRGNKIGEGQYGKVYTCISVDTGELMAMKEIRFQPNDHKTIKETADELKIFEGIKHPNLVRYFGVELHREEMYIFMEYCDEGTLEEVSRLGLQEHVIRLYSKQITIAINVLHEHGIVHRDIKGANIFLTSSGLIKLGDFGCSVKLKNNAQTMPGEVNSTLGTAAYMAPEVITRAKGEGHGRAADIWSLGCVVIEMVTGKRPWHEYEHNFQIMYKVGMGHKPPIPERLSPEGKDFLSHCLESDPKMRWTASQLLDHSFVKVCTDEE

Row | SMILES | kinase still bound, per cent of control (CDKL2 (human)) | kinase still bound, per cent of control (PAK1 (human)) | kinase still bound, per cent of control (STK33 (human)) | kinase still bound, per cent of control (CLK4 (human)) | kinase still bound, per cent of control (MAPK11 (human)) | kinase still bound, per cent of control (CDK11B (human)) | kinase still bound, per cent of control (PRKD2 (human)) | kinase still bound, per cent of control (TYRO3 (human)) | kinase still bound, per cent of control (CAMKK1 (human)) | kinase still bound, per cent of control (CDK15 (human)) | kinase still bound, per cent of control (PIM1 (human)) | kinase still bound, per cent of control (CDK18 (human)) | kinase still bound, per cent of control (IRAK3 (human)) | kinase still bound, per cent of control (PRKX (human)) | kinase still bound, per cent of control (CDC42BPB (human)) | kinase still bound, per cent of control (DAPK3 (human)) | kinase still bound, per cent of control (STK4 (human)) | kinase still bound, per cent of control (EPHA1 (human)) | kinase still bound, per cent of control (LIMK1 (human)) | kinase still bound, per cent of control (RPS6KA2 KD1 (human)) | further results
1 | Cc1cc([C@@H](C)Nc2ccccc2C(=O)O)c2nc(N3CCOCC3)cc(=O)n2c1 | 91% | 100% | 100% | 68% | 91% | 100% | 100% | 100% | 98% | 100% | 100% | 100% | 58% | 91% | 100% | 100% | 95% | 100% | 100% | 97% | kinase still bound, per cent of control (RET (human)): 100%; kinase still bound, per cent of control (CSNK1D (human)): 86%; kinase still bound, per cent of control (SYK (human)): 100%; kinase still bound, per cent of control (SRC (human)): 100%; kinase still bound, per cent of control (STK3 (human)): 66%; kinase still bound, per cent of control (MERTK (human)): 100%; kinase still bound, per cent of control (CDK16 (human)): 100%; kinase still bound, per cent of control (RIOK1 (human)): 100%; kinase still bound, per cent of control (RAF1 (human)): 100%; kinase still bound, per cent of control (MKNK1 (human)): 92%; kinase still bound, per cent of control (STK10 (human)): 100%; kinase still bound, per cent of control (GSK3B (human)): 100%; kinase still bound, per cent of control (CDK8 (human)): 79%; kinase still bound, per cent of control (MAP3K4 (human)): 100%; kinase still bound, per cent of control (MAPKAPK2 (human)): 66%; kinase still bound, per cent of control (CHUK (human)): 100%; kinase still bound, per cent of control (STK35 (human)): 95%; kinase still bound, per cent of control [1]: 44%; kinase still bound, per cent of control (PDGFRA (human)): 84%
2 | CCOc1cc2ncc(C#N)c(Nc3ccc(OCc4ccccn4)c(Cl)c3)c2cc1NC(=O)/C=C/CN(C)C | 100% | 16% | 42% | 100% | 100% | 97% | 50% | 100% | 100% | 98% | 100% | 96% | 85% | 100% | 100% | 91% | 17% | 100% | 100% | 88% | kinase still bound, per cent of control (CSNK1D (human)): 60%; kinase still bound, per cent of control (SYK (human)): 65%; kinase still bound, per cent of control (SRC (human)): 82%; kinase still bound, per cent of control (STK3 (human)): 1.4%; kinase still bound, per cent of control (MERTK (human)): 8.4%; kinase still bound, per cent of control (RIOK1 (human)): 68%; kinase still bound, per cent of control (RAF1 (human)): 100%; kinase still bound, per cent of control (MKNK1 (human)): 29%; kinase still bound, per cent of control (STK10 (human)): 0%; kinase still bound, per cent of control (CDK8 (human)): 100%; kinase still bound, per cent of control (MAP3K4 (human)): 4.8%; kinase still bound, per cent of control (MAPKAPK2 (human)): 89%; kinase still bound, per cent of control (CHUK (human)): 81%; kinase still bound, per cent of control [1]: 64%; kinase still bound, per cent of control (PDGFRA (human)): 100%
3 | CC[C@@H]1C(=O)N(C)c2cnc(Nc3ccc(C(=O)NC4CCN(C)CC4)cc3OC)nc2N1C1CCCC1 | 100% | 100% | 14% | 100% | 100% | 100% | 16% | 100% | 1.9% | 100% | 100% | 100% | 100% | 100% | 100% | 3.6% | 100% | 100% | 100% | 100% | kinase still bound, per cent of control (RET (human)): 100%; kinase still bound, per cent of control (SRC (human)): 100%; kinase still bound, per cent of control (PIK3CD (human)): 100%; kinase still bound, per cent of control (MERTK (human)): 100%; kinase still bound, per cent of control (CDK16 (human)): 100%; kinase still bound, per cent of control (RIOK1 (human)): 100%; kinase still bound, per cent of control (RAF1 (human)): 100%; kinase still bound, per cent of control (MKNK1 (human)): 100%; kinase still bound, per cent of control (STK10 (human)): 100%; kinase still bound, per cent of control (GSK3B (human)): 100%; kinase still bound, per cent of control (CDK8 (human)): 100%; kinase still bound, per cent of control (MAP3K4 (human)): 100%; kinase still bound, per cent of control (MAPKAPK2 (human)): 100%; kinase still bound, per cent of control (CHUK (human)): 100%; kinase still bound, per cent of control (STK35 (human)): 100%; kinase still bound, per cent of control [1]: 100%; kinase still bound, per cent of control (PDGFRA (human)): 100%
4 | O=C(O)c1ccc(Nc2ncc3c(n2)-c2ccc(Cl)cc2C(c2c(F)cccc2F)=NC3)cc1 | 86% | 80% | 100% | 100% | 99% | 89% | 92% | 46% | 89% | 100% | 71% | 100% | 15% | 75% | 69% | 70% | 85% | 15% | 85% | 100% | kinase still bound, per cent of control (RET (human)): 59%; kinase still bound, per cent of control (SYK (human)): 78%; kinase still bound, per cent of control (PIK3CD (human)): 88%; kinase still bound, per cent of control (STK3 (human)): 48%; kinase still bound, per cent of control (MERTK (human)): 3%; kinase still bound, per cent of control (CDK16 (human)): 100%; kinase still bound, per cent of control (RIOK1 (human)): 100%; kinase still bound, per cent of control (MKNK1 (human)): 100%; kinase still bound, per cent of control (STK10 (human)): 6.7%; kinase still bound, per cent of control (CDK8 (human)): 100%; kinase still bound, per cent of control (MAP3K4 (human)): 36%; kinase still bound, per cent of control (MAPKAPK2 (human)): 100%; kinase still bound, per cent of control (CHUK (human)): 100%; kinase still bound, per cent of control (PDGFRA (human)): 56%
